For one test, the target named is CDK2/Cyclin A (Homo sapiens, UniProt P24941). The experiment in a line: Inhibition of CDK2/Cyclin A Retinoblastoma Kinase Activity. The format is biochemical. Particulars: for Ki: apparent Ki, CDK2/proteolyzed cyclin A, Rb fragment substrate, 25 μM ATP; for CDK2 % Inhibition At 0.03 μM: Table 2. In a few lines: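 CDK2 (10 or 19 nM), insect-cell expressed, gel-filtration purified with truncated cyclin A; Rb fragment substrate; 25 μM ATP; 10 mM HEPES pH 7.4, 10 mM MgCl2; 30° C, 60 or 75 min; EDTA stop; phosphocellulose/nitrocellulose capture, phosphorimager. % inhibition vs DMSO control, no-enzyme background subtracted.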

Test [1] addresses human CDK4 and genetically truncated (1-264) cyclin D3 (Homo sapiens, UniProt P11802). The experiment in a line: Inhibition of CDK4/Cyclin D Retinoblastoma Kinase Activity. Particulars: for Ki: apparent Ki, CDK4/truncated cyclin D3, Rb fragment substrate, 25 μM ATP. In kind it is biochemical. A digest of the protocol:
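The enzyme complex (5 nM), expressed in co-infected insect cells, was incubated with recombinant Rb fragment, 25 μM radiolabelled ATP and 2% DMSO at 30 °C. Reactions were stopped with EDTA after 20 minutes, or 60 minutes for tight-binding inhibitors. Apparent Ki values came from competitive inhibition fits.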

The next test deals with HCT-116 cell line. Kind of test: Inhibition of cell growth, tetrazolium salt (MTT) assay. In kind it is cell-based. Particulars: for IC50: Homo sapiens, HCT-116, 120 h, MTT, three to five days, read-out: HCT-116 IC50; for HCT-116 % Inhibition at 0.25 μM: 0.25 μM compound. In a few lines:
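MTT colorimetric viability: three-to-five-day compound exposure in 0.5% (v/v) DMSO at 37° C, MTT 0.2 mg/mL for the last 4 h, A540 compared with vehicle-treated cells.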

[2] abbreviates: 0.1 μM compound, HCT-116, Table 3.

Structures are written as SMILES. Read-outs that look alike come from different tables or passages of the source. A value given as a limit tells only on which side of the number the result lay.

human CDK4 and genetically truncated (1-264) cyclin D3, sequence (P11802 whole entry, the tested form may be a part): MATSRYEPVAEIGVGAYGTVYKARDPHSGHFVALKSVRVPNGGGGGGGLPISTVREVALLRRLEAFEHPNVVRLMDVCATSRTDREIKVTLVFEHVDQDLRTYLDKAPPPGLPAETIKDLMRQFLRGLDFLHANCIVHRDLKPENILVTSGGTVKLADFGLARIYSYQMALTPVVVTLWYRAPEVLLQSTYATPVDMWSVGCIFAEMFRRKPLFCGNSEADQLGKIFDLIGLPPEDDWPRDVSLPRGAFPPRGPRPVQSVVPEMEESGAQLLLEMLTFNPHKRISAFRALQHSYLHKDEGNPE
human CDK4 and genetically truncated (1-264) cyclin D3, sequence (P30281 1-264 partner): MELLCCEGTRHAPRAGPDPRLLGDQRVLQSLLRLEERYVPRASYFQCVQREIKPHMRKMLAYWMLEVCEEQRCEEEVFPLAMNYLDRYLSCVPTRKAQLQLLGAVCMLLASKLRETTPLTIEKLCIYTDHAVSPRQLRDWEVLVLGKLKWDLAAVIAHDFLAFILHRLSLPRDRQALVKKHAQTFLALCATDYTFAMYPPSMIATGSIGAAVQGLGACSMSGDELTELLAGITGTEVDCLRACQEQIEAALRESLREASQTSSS

On to `Nc1nc(NC2CCN(C(=O)c3ccc(Cl)cc3)CC2)sc1C(=O)c1c(F)cccc1F` [Example R144], for which, at CDK2/Cyclin A (at 0.03 μM), the “CDK2 % Inhibition at 0.03 μM” value was 20%. In test [1] (at 0.03 μM), the “CDK4 % Inhibition at 0.03 μM” value is given as 46%. For the same molecule, in the test with HCT-116 cell line (HCT-116 cells, at 0.1 μM), the “HCT-116 % Inhibition at 0.1 μM” value worked out at 0%. Further, the “HCT-116 5 Inhibition at 0.25 μM” value in the test on HCT-116 cell line (HCT-116 cells) is 38.
Broadly, the IC50 is the concentration that inhibits the measured activity by half. On to `COc1ccc(S(=O)(=O)N2CCC(Nc3nc(N)c(C(=O)c4c(F)cccc4F)s3)CC2)cn1` [Example F22, 1-{4-Amino-2-[1-(6-methoxy-pyridine-3-sulfonyl)-piperidin4-ylamino]-thiazol-5-yl}-1-(2,6-difluoro-phenyl)-methanone], for which the Ki on CDK2/Cyclin A stood at 0.00084 µM; in test [1], 0.0012 µM. Further, the results for the IC50 with HCT-116 cell line (first HCT-116 column (c4)) and in the test on HCT-116 cell line (second HCT-116 column (c5)) were 0.08 µM and 0.23 µM, respectively.
Consider `Cc1ccc(C(=O)N2CCC(Nc3nc(N)c(C(=O)c4c(F)cccc4F)s3)CC2)c(C)c1` [Example R126], for which the “CDK2 % Inhibition at 0.03 μM” value on CDK2/Cyclin A (at 0.03 μM) is given as 43%. For the same molecule, the “CDK4 % Inhibition at 0.03 μM” value in test [1] (at 0.03 μM) is 57%. In addition, the “HCT-116 % Inhibition at 0.1 μM” value in the test on HCT-116 cell line (HCT-116 cells, at 0.1 μM) was 0%. For the same molecule, in the test with HCT-116 cell line (HCT-116 cells), the “HCT-116 5 Inhibition at 0.25 μM” value is reported as 33.
Turning to `Nc1nc(NC2CCN(C(=O)Nc3cccc(Br)c3)CC2)sc1C(=O)c1c(F)cccc1F` [Example O12], the “CDK2 % Inhibition At 0.03 μM” value on CDK2/Cyclin A (0.03 μM compound) worked out at 31%. The “CDK4 % Inhibition at 0.03 μM” value in test [1] (0.03 μM compound, Table 2) is 3%. Further, the “HCT-116 % Inhibition at 0.25 μM” value with HCT-116 cell line (HCT-116, Table 2) was found to be 25%.
Take `Cc1ccc(S(=O)(=O)N2CCC(Nc3nc(N)c(C(=O)c4c(F)cccc4F)s3)CC2)cc1` [Example P23]: the “CDK2 % Inhibition at 0.03 μM” value at CDK2/Cyclin A (0.03 μM compound, Table 3) is 64%. Moreover, the “CDK4 % Inhibition at 0.03 μM” value in test [1] (0.03 μM compound, Table 3) is 67%. Further, the “HCT-116 % Inhibition at 0.1 μM” value with HCT-116 cell line (setting [2]) is listed as 19%. For the same molecule, in the test on HCT-116 cell line (HCT-116, Table 3), the “HCT-116 % Inhibition at 0.25 μM” value is 32%.
Consider `Nc1nc(NC2CCN(C(=O)CCN3CCCCC3)CC2)sc1C(=O)c1c(F)cccc1F` [Example D3, 1-(4-[4-Amino-5-(2,6-difluoro-benzoyl)-thiazol-2-ylamino}-piperidin-1-yl)-3-piperidin-1-yl-propan-1-one], for which the Ki stood at 0.4 µM at CDK2/Cyclin A and 0.071 µM in test [1]. The IC50 in the test on HCT-116 cell line (first HCT-116 column (c4)) is over 5 µM.
In the case of `Nc1nc(NC2CCN(S(=O)(=O)c3ccc(C4=NCCO4)cc3)CC2)sc1C(=O)c1c(F)cccc1F` [Example J5, 1-(4-Amino-2-{1-[4-(4,5-dihydro-oxazol-2-yl)-benzenesulfonyl]-piperidin-4-ylamino}-thiazol-5-yl)-1-(2,6-difluoro-phenyl)-methanone], the Ki at CDK2/Cyclin A came to 0.0028 µM; in test [1], 0.0039 µM. The IC50 with HCT-116 cell line (first HCT-116 column (c4)) stood at 0.21 µM; in the test with HCT-116 cell line (second HCT-116 column (c5)), 0.48 µM.
Take `Cc1cc(C)cc(C(=O)N2CCC(Nc3nc(N)c(C(=O)c4c(F)cccc4F)s3)CC2)c1` [Example R142]: on CDK2/Cyclin A (at 0.03 μM), the “CDK2 % Inhibition at 0.03 μM” value is 67%. Besides, the “CDK4 % Inhibition at 0.03 μM” value in test [1] (at 0.03 μM) came to 83%. The “HCT-116 % Inhibition at 0.1 μM” value in the test with HCT-116 cell line (HCT-116 cells, at 0.1 μM) came to 86%. For the same molecule, the “HCT-116 5 Inhibition at 0.25 μM” value in the test on HCT-116 cell line (HCT-116 cells) is listed as 99.
`Nc1nc(NC2CCN(C(=O)NC(=O)Oc3ccccc3)CC2)sc1C(=O)c1c(F)cccc1F` [Example O62]: on CDK2/Cyclin A (0.03 μM compound), the “CDK2 % Inhibition At 0.03 μM” value is listed as 36%. Besides, the “CDK4 % Inhibition at 0.03 μM” value in test [1] (0.03 μM compound, Table 2) turned out to be 18%. In addition, in the test on HCT-116 cell line (HCT-116, Table 2), the “HCT-116 % Inhibition at 0.25 μM” value was found to be 41%.
In the same order, the values of `Nc1nc(NC2CCN(C(=O)Nc3ccccc3)CC2)sc1C(=O)c1c(F)cccc1F` [Example O3] are 34%, 6% and 0%.
Take `Cc1nn(C)c(Cl)c1S(=O)(=O)N1CCC(Nc2nc(N)c(C(=O)c3c(F)cccc3F)s2)CC1` [Example P50]: the “CDK2 % Inhibition at 0.03 μM” value on CDK2/Cyclin A (0.03 μM compound, Table 3) is 30%. Also, in test [1] (0.03 μM compound, Table 3), the “CDK4 % Inhibition at 0.03 μM” value amounted to 35%. For the same molecule, the “HCT-116 % Inhibition at 0.1 μM” value in the test with HCT-116 cell line (setting [2]) is recorded as 14%. The “HCT-116 % Inhibition at 0.25 μM” value in the test on HCT-116 cell line (HCT-116, Table 3) came out at 25%.
Regarding `Nc1nc(NC2CCN(C(=O)c3ccc4c(c3)C(=O)OC4=O)CC2)sc1C(=O)c1c(F)cccc1F` [Example Q66], the “CDK2 % Inhibition at 0.03 μM” value at CDK2/Cyclin A (0.03 μM compound, Table 4) was 7%. The “CDK4 % Inhibition at 0.03 μM” value in test [1] (0.03 μM compound, Table 4) was determined as 29%. The “HCT-116 % Inhibition at 0.1 μM” value with HCT-116 cell line (0.1 μM compound, HCT-116, Table 4) is 7%. Also, in the test with HCT-116 cell line (HCT-116, Table 4), the “HCT-116 % Inhibition at 0.25 μM” value is listed as 34%.

Values taken from patent US20050101595A1, “N-containing cycloalkyl-substituted amino-thiazole derivatives and pharmaceutical compositions for inhibiting cell proliferation and methods for their use” (PFIZER INC., priority 2003, published 2005).
